Data published in PubChem BioAssay AID248 (DTP/NCI, 2004).
Values joined by “and” are separate entries in the source; they are usually repeats but may differ in a detail not shown here. Equal values may be shown once. Inconclusive results and toxic doses are left out. No stated cut-off is given here; in the data, active means T/C of 150% or more; inactive means T/C below 125%.

Test system: L1210 leukemia ip in BDF1 mice, survival T/C
Assay: NCI In Vivo Anticancer Drug Screen. Data for tumor model L1210 Leukemia (intraperitoneal) in B6D2F1 (BDF1) mice
Conditions: endpoint: mean survival time, higher = longer survival
Summary of the method: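 Tumor was transplanted into mice, which were then dosed with test compound or vehicle alone. Survival was recorded for each group, and the treated figure was expressed relative to the control figure.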

[1] = dose: 12.5 mg/kg/injection, schedule: Q01DX009 (ip), vehicle: saline
[2] = dose: 12.5 mg/kg/injection, schedule: Q04DX002 (ip), vehicle: saline
[3] = dose: 25.0 mg/kg/injection, schedule: Q01DX009 (ip), vehicle: saline
[4] = dose: 25.0 mg/kg/injection, schedule: Q04DX002 (ip), vehicle: saline
[5] = dose: 25.0 mg/kg/injection, schedule: Q04DX003 (ip), vehicle: saline
[6] = dose: 50.0 mg/kg/injection, schedule: Q01DX001 (ip), vehicle: saline
[7] = dose: 100.0 mg/kg/injection, schedule: Q01DX001 (ip), vehicle: saline
[8] = dose: 200.0 mg/kg/injection, schedule: Q01DX001 (ip), vehicle: saline
[9] = dose: 400.0 mg/kg/injection, schedule: Q01DX001 (ip), vehicle: saline
[10] = dose: 50.0 mg/kg/injection, schedule: Q01DX009 (ip), vehicle: saline
[11] = dose: 100.0 mg/kg/injection, schedule: Q01DX009 (ip), vehicle: saline

Measured: T/C

CC(=O)Nc1ccc(SSSc2ccc(NC(C)=O)cc2)cc1
inactive: dose: 1.56 mg/kg/injection, schedule: Q01DX009 (ip), vehicle: water 100 % of control | dose: 3.12 mg/kg/injection, schedule: Q01DX009 (ip), vehicle: water 92 % of control | dose: 6.25 mg/kg/injection, schedule: Q01DX009 (ip), vehicle: water 96 % of control | dose: 12.5 mg/kg/injection, schedule: Q01DX009 (ip), vehicle: water 91 % of control | dose: 25.0 mg/kg/injection, schedule: Q01DX009 (ip), vehicle: water 94 % of control and 88 % of control | dose: 200.0 mg/kg/injection, schedule: Q01DX009 (ip), vehicle: water 92 % of control

c1ccc(C[n+]2cccc3ccccc32)cc1
inactive: dose: 6.25 mg/kg/injection, schedule: Q01DX009 (ip), vehicle: saline 100 % of control | dose: 6.25 mg/kg/injection, schedule: Q04DX003 (ip), vehicle: saline 97 % of control | [1] 101 % of control | [2] 98 % of control | dose: 12.5 mg/kg/injection, schedule: Q04DX003 (ip), vehicle: saline 106 % of control | [3] 100 % of control | [4] 102 % of control | [5] 101 % of control | dose: 50.0 mg/kg/injection, schedule: Q04DX002 (ip), vehicle: saline 105 % of control

CCOC(=O)C(C)(C(=O)OCC)c1cccc2ccccc12
inactive: dose: 100.0 mg/kg/injection, schedule: Q01DX001 (ip), vehicle: other 98 % of control | dose: 100.0 mg/kg/injection, schedule: Q04DX003 (ip), vehicle: other 93 % of control | dose: 200.0 mg/kg/injection, schedule: Q01DX001 (ip), vehicle: other 102 % of control | dose: 200.0 mg/kg/injection, schedule: Q04DX003 (ip), vehicle: other 100 % of control | dose: 400.0 mg/kg/injection, schedule: Q01DX001 (ip), vehicle: other 96 % of control | dose: 400.0 mg/kg/injection, schedule: Q04DX003 (ip), vehicle: other 94 % of control

COC(=O)Nc1cc2c3c(c1)CCCN3CCC2
inactive: dose: 50.0 mg/kg/injection, schedule: Q01DX009 (ip), vehicle: saline with Tween-80 91 % of control | dose: 100.0 mg/kg/injection, schedule: Q01DX009 (ip), vehicle: saline with Tween-80 96 % of control

COc1cccc(CN(C)C)c1C(C)(C)O
inactive: [6] 97 % of control | [7] 95 % of control

CC(=O)O[C@@H]1C[C@@]2(C)[C@@H]3CC=C4[C@@H](C[C@H](O)C(=O)C4(C)C)[C@]3(C)C(=O)C[C@]2(C)[C@H]1[C@@](C)(O)C(=O)/C=C/C(C)(C)OC(C)=O
inactive: [6] 102 % of control | [7] 107 % of control

Cc1cc(=O)c2cc(Cl)cc(Br)c2[nH]1
inactive: [7] 94 % of control | [8] 96 % of control | [9] 103 % of control

O=C(O)c1oc(Br)cc1Br
inactive: dose: 12.5 mg/kg/injection, schedule: Q04DX003 (ip), vehicle: other 96 % of control | dose: 25.0 mg/kg/injection, schedule: Q04DX003 (ip), vehicle: other 102 % of control | dose: 50.0 mg/kg/injection, schedule: Q04DX003 (ip), vehicle: other 101 % of control

C=CCOCC(O)CN(C)C1CCCCC1 (stereo not given)
inactive: [3] 97 % of control | [5] 106 % of control | [10] 98 % of control | dose: 50.0 mg/kg/injection, schedule: Q04DX003 (ip), vehicle: saline 103 % of control | [11] 95 % of control | dose: 100.0 mg/kg/injection, schedule: Q04DX003 (ip), vehicle: saline 100 % of control and 104 % of control

CCOc1ccc2cc(S(=O)(=O)O)ccc2c1N
inactive: [11] 93 % of control | dose: 100.0 mg/kg/injection, schedule: Q04DX003 (ip), vehicle: Klucel (hydroxypropylcellulose) (HPC) 97 % of control | dose: 200.0 mg/kg/injection, schedule: Q01DX009 (ip), vehicle: saline 95 % of control | dose: 200.0 mg/kg/injection, schedule: Q04DX003 (ip), vehicle: Klucel (hydroxypropylcellulose) (HPC) 98 % of control | dose: 400.0 mg/kg/injection, schedule: Q01DX009 (ip), vehicle: saline 87 % of control | dose: 400.0 mg/kg/injection, schedule: Q04DX003 (ip), vehicle: Klucel (hydroxypropylcellulose) (HPC) 101 % of control

CCC(O)C[As](=O)(O)c1cccc(Cl)c1 (stereo not given)
inactive: dose: 0.78 mg/kg/injection, schedule: Q04DX002 (ip), vehicle: saline 106 % of control | dose: 0.78 mg/kg/injection, schedule: Q04DX003 (ip), vehicle: saline with Tween-80 92 % of control | dose: 1.56 mg/kg/injection, schedule: Q01DX001 (ip), vehicle: saline 96 % of control | dose: 1.56 mg/kg/injection, schedule: Q04DX002 (ip), vehicle: saline 101 % of control | dose: 1.56 mg/kg/injection, schedule: Q04DX003 (ip), vehicle: saline with Tween-80 94 % of control | dose: 3.13 mg/kg/injection, schedule: Q01DX001 (ip), vehicle: saline 100 % of control | dose: 3.13 mg/kg/injection, schedule: Q04DX002 (ip), vehicle: saline 105 % of control | dose: 3.13 mg/kg/injection, schedule: Q04DX003 (ip), vehicle: saline with Tween-80 95 % of control | dose: 6.25 mg/kg/injection, schedule: Q01DX001 (ip), vehicle: saline with Tween-80 120 % of control | dose: 6.25 mg/kg/injection, schedule: Q01DX001 (ip), vehicle: saline 91 % of control | dose: 6.25 mg/kg/injection, schedule: Q04DX002 (ip), vehicle: saline 97 % of control | dose: 6.25 mg/kg/injection, schedule: Q04DX003 (ip), vehicle: saline with Tween-80 92 % of control

Nc1ncnc(N)c1NC(=O)Cc1ccccc1
inactive: dose: 100.0 mg/kg/injection, schedule: Q01DX001 (ip), vehicle: saline with Tween-80 98 % of control | dose: 200.0 mg/kg/injection, schedule: Q01DX001 (ip), vehicle: saline with Tween-80 97 % of control | dose: 400.0 mg/kg/injection, schedule: Q01DX001 (ip), vehicle: saline with Tween-80 98 % of control

CC(=O)OCCC/C(=C\c1c2ccccc2cc2ccccc12)[N+](=O)[O-]
inactive: dose: 100.0 mg/kg/injection, schedule: Q01DX001 (ip), vehicle: carboxymethylcellulose (CMC) 94 % of control | dose: 200.0 mg/kg/injection, schedule: Q01DX001 (ip), vehicle: carboxymethylcellulose (CMC) 94 % of control | dose: 400.0 mg/kg/injection, schedule: Q01DX001 (ip), vehicle: carboxymethylcellulose (CMC) 96 % of control

CCCCC(=O)N/N=C/c1ccc(Cl)c([N+](=O)[O-])c1
inactive: [7] 91 % of control | [8] 89 % of control | [9] 91 % of control

O=C(O)CC(Br)CBr (stereo not given)
inactive: [7] 94 % of control | [8] 103 % of control

NC(=O)NC(O)C(Cl)(Cl)Cl (stereo not given)
inactive: dose: 100.0 mg/kg/injection, schedule: Q01DX009 (ip), vehicle: Klucel (hydroxypropylcellulose) (HPC) 100 % of control | dose: 200.0 mg/kg/injection, schedule: Q01DX009 (ip), vehicle: Klucel (hydroxypropylcellulose) (HPC) 100 % of control | dose: 400.0 mg/kg/injection, schedule: Q01DX009 (ip), vehicle: Klucel (hydroxypropylcellulose) (HPC) 93 % of control

NCCCn1c2ccccc2c2cnccc21
inactive: [1] 101 % of control | [3] 101 % of control | dose: 25.0 mg/kg/injection, schedule: Q04DX003 (ip), vehicle: water 87 % of control | [10] 107 % of control | dose: 50.0 mg/kg/injection, schedule: Q01DX009 (ip), vehicle: water 104 % of control | dose: 50.0 mg/kg/injection, schedule: Q04DX003 (ip), vehicle: water 92 % of control | dose: 100.0 mg/kg/injection, schedule: Q01DX009 (ip), vehicle: water 103 % of control | dose: 100.0 mg/kg/injection, schedule: Q04DX003 (ip), vehicle: water 104 % of control and 87 % of control

CC(C)NC(=O)C1CC2c3cccc4c3c(cn4CN(C)C)CC2N(C)C1 (stereo not given)
inactive: dose: 2.5 mg/kg/injection, schedule: Q04DX003 (ip), vehicle: saline 101 % of control | dose: 5.0 mg/kg/injection, schedule: Q04DX003 (ip), vehicle: saline 101 % of control | dose: 10.0 mg/kg/injection, schedule: Q04DX003 (ip), vehicle: saline 100 % of control | [2] 113 % of control | dose: 20.0 mg/kg/injection, schedule: Q04DX003 (ip), vehicle: saline 101 % of control | [4] 108 % of control
